What was measured:
[1] = target: T1, Serine/threonine-protein kinase TAO2 (Homo sapiens) (UniProt Q9UL54); assay: Inhibition of human recombinant TAO2 at 40 nM in presence of ATP by radiometric assay relative to control
T1 sequence (whole entry): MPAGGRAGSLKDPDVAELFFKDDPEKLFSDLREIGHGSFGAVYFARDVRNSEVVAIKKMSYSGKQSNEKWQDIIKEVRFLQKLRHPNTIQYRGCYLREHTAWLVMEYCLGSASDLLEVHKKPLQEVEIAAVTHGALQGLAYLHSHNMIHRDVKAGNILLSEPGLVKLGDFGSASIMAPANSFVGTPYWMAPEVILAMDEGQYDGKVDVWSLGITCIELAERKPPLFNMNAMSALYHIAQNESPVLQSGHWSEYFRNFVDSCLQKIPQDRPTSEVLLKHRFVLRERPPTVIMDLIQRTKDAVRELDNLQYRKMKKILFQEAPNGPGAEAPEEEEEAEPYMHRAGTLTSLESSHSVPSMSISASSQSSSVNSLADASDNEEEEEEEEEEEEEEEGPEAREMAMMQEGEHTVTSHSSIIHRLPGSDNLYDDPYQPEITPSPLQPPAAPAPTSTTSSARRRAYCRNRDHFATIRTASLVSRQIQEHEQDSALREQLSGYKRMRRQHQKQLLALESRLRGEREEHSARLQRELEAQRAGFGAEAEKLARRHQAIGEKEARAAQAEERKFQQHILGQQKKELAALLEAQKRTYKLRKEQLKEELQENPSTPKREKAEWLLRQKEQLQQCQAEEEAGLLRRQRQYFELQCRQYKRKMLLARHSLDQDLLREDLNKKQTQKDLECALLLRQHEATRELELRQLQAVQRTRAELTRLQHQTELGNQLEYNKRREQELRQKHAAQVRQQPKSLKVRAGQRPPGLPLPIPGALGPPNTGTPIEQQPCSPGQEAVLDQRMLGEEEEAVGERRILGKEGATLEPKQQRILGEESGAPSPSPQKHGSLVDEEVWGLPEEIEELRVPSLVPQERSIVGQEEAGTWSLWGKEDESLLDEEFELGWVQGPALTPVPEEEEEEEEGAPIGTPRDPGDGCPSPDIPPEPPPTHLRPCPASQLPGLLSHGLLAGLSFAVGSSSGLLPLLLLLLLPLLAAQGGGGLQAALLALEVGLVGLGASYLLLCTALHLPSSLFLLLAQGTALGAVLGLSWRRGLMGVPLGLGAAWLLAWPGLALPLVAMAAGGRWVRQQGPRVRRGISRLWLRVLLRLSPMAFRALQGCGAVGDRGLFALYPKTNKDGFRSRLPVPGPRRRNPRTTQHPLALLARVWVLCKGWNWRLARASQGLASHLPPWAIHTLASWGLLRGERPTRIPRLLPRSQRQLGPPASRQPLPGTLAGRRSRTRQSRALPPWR

[2] = target: T2, Receptor-interacting serine/threonine-protein kinase 1 (Homo sapiens) (UniProt Q13546); assay: Inhibition of human recombinant RIPK1 at 40 nM related to control ULK1
T2 sequence (whole entry): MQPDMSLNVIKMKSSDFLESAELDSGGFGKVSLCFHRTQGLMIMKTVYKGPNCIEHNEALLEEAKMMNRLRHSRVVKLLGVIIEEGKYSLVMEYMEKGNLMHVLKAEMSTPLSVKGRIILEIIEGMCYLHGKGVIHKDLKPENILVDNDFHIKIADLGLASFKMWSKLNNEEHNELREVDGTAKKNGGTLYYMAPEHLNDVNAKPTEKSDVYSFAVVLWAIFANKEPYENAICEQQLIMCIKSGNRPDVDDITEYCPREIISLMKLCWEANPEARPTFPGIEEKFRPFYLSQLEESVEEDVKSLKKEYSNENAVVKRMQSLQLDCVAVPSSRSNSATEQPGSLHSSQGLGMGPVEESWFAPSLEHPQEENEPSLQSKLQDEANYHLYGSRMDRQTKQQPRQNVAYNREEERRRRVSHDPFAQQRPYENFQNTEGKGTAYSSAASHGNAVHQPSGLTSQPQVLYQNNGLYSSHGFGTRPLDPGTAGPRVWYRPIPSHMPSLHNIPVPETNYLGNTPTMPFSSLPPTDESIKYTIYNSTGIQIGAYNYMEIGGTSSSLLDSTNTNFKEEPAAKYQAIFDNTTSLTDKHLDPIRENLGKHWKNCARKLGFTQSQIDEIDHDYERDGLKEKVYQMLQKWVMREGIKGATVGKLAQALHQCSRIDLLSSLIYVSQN

[3] = target: Tyrosine-protein kinase Yes (Homo sapiens) (UniProt P07947); assay: Inhibition of human recombinant YES at 500 nM related to control ULK1
[4] = target: Misshapen-like kinase 1 (Homo sapiens) (UniProt Q8N4C8); assay: Inhibition of human recombinant MINK at 500 nM related to control ULK1
[5] = target: T3, Muscle, skeletal receptor tyrosine-protein kinase (Homo sapiens) (UniProt O15146); assay: Inhibition of human recombinant MUSK at 500 nM related to control ULK1
T3 sequence (whole entry): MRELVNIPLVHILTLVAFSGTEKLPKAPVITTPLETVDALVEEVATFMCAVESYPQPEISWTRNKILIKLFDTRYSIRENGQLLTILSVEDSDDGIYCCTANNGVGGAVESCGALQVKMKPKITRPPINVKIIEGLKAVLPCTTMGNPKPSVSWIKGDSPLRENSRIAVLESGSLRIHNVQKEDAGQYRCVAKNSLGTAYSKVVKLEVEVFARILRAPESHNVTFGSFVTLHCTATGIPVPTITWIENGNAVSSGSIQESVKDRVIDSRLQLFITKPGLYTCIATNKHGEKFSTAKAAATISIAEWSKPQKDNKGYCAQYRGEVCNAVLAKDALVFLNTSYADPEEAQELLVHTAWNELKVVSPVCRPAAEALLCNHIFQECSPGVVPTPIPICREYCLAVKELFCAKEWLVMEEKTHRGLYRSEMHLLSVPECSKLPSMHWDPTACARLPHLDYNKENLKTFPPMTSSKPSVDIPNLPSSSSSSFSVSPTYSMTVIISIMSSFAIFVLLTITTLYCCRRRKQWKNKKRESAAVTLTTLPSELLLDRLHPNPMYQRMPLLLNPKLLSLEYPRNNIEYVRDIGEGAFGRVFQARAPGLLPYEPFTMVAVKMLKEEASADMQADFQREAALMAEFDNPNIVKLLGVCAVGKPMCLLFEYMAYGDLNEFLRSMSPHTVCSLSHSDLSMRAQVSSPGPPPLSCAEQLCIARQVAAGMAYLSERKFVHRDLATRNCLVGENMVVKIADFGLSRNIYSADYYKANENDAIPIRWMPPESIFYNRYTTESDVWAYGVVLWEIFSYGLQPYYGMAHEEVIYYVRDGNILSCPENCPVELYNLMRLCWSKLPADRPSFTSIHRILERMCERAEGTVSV

[6] = target: STE20-like serine/threonine-protein kinase (Homo sapiens) (UniProt Q9H2G2); assay: Inhibition of human recombinant SLK at 500 nM related to control ULK1
Sequence of STE20-like serine/threonine-protein kinase (Homo sapiens) (Q9H2G2 whole entry, looked up): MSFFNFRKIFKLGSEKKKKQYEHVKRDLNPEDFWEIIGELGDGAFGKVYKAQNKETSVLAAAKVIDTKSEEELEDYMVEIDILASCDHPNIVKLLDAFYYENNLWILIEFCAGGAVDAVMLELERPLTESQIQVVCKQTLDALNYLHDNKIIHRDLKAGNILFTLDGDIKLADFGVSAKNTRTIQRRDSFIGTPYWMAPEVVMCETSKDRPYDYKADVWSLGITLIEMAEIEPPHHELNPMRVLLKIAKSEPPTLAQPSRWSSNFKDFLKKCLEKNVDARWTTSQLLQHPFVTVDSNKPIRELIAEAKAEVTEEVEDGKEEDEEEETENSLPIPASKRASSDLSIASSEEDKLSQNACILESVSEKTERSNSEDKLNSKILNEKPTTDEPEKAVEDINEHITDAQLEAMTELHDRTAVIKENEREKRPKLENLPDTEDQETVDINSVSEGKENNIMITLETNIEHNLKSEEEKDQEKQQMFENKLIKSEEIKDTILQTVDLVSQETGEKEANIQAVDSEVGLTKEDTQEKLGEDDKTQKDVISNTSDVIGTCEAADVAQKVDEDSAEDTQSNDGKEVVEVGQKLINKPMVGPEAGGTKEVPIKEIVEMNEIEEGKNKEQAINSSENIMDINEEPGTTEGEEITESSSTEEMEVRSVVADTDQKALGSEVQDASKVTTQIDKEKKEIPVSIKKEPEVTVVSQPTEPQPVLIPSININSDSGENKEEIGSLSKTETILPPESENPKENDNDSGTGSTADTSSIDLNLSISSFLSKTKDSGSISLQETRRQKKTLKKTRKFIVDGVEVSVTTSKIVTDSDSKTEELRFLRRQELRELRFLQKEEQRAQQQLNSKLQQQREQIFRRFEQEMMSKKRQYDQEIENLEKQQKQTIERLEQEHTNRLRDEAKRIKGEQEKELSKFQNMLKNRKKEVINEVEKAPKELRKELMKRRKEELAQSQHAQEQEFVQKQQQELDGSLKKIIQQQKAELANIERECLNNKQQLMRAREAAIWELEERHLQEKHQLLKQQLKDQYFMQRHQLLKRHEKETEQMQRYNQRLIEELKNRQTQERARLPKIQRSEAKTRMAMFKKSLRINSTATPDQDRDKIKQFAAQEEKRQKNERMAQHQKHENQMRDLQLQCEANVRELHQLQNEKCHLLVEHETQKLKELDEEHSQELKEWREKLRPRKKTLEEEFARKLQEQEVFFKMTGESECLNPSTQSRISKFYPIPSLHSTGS

Sequence of Tyrosine-protein kinase Yes (Homo sapiens) (P07947 2-543 limits assumed): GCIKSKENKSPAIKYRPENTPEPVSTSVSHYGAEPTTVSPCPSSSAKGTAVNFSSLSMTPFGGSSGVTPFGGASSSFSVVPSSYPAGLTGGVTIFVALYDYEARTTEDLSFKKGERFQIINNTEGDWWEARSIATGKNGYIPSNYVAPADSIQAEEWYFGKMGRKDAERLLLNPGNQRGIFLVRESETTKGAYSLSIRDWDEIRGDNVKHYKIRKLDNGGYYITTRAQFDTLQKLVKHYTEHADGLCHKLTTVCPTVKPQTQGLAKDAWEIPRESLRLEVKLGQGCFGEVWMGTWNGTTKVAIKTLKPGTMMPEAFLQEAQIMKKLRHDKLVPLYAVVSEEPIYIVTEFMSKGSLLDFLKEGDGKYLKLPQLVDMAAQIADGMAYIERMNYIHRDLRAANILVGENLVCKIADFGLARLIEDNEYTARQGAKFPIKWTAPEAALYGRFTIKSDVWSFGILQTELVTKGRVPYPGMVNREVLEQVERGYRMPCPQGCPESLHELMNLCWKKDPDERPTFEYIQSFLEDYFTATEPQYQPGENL
Sequence of Misshapen-like kinase 1 (Homo sapiens) (Q8N4C8 whole entry, looked up): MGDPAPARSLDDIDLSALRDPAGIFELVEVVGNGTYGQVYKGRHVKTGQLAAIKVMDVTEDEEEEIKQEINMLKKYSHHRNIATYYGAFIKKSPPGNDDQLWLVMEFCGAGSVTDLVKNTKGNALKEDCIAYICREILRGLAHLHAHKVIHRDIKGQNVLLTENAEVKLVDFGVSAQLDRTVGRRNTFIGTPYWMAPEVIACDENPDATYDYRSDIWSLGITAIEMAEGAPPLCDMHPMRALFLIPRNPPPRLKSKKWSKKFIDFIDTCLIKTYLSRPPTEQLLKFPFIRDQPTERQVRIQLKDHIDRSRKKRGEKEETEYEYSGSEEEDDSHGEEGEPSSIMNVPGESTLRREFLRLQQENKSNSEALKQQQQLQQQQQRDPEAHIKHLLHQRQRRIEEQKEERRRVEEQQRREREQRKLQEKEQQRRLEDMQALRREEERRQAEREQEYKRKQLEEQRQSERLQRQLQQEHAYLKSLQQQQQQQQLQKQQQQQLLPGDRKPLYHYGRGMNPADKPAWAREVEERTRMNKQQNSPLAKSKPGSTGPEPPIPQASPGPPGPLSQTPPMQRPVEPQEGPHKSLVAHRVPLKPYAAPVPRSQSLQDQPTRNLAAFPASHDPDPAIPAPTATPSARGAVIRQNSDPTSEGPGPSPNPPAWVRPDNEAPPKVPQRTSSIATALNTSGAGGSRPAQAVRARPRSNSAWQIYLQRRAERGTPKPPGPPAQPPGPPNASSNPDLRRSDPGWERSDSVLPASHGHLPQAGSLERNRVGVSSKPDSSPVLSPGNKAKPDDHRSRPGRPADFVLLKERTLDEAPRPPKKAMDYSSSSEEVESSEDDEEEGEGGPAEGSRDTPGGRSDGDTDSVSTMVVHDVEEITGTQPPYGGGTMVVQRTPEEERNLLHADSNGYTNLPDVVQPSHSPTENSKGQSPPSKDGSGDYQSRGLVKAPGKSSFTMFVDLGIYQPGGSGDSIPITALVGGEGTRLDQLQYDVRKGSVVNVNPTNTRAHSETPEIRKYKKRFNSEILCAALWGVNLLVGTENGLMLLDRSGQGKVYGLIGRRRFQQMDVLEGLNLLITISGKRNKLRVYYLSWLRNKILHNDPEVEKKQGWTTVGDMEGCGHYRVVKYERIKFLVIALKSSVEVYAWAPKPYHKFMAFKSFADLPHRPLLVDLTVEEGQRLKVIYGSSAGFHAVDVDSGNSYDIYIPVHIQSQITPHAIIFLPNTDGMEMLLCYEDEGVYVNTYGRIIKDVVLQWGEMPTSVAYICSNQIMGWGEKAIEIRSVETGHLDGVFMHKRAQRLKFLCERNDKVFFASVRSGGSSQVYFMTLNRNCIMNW

O=C(N[C@@H](C1CC1)C(F)(F)F)c1cc(-c2cnn3cc(-c4ccc(F)cc4)cnc23)cs1
inhibition [1]: 3%
fold change (FC) [2]: 0.03

CNC(=O)c1ccccc1Oc1nc(Nc2cc(OC)c(OC)c(OC)c2)ncc1Br
fold change (FC) [3]: 0.89
fold change (FC) [4]: 0.05
fold change (FC) [5]: 0.46
fold change (FC) [6]: 0.2

From ChEMBL document CHEMBL5653631, “A Potent and Selective ULK1 Inhibitor Suppresses Autophagy and Sensitizes Cancer Cells to Nutrient Stress” (iScience, 2018)
